Laboratory results: patent publication US8530387B2, “Dithiinopyridazinone derivatives” (Bayer CropScience AG, priority 2010, dated 2013)

Columns and labels:
[1] = logP by HPLC on reversed-phase column (C18), EEC Directive 79/831 Annex V.A8; format: physicochemical; conditions: for Log P: pH 2.7
Description: The logP values reported in the preparation examples and tables above are determined in accordance with EEC Directive 79/831 Annex V.A8 by means of HPLC (High Performance Liquid Chromatography) on a reversed-phase column (C18). Temperature: 43° C. […] Calibration takes place using unbranched alkan-2-ones (having 3 to 16 carbon atoms) of which the logP values are known (logP values determined on the basis of the retention times, by linear interpolation between two successive alkanones). The lambda-max values were determined on the basis of the UV spectra from 200 nm to 400 nm in the maxima of the chromatographic signals.

Puccinia recondita = assay: Puccinia test (wheat)/protective; format: in vivo; conditions: young wheat plants, protective spray, 1500 ppm, evaluation 7-9 days following inoculation
Text: Puccinia Test (Wheat)/Protective • Solvent: 49 parts by weight of N,N-dimethylformamide • Emulsifier: 1 part by weight of alkylaryl polyglycol ether An appropriate preparation of active compound is produced by mixing 1 part by weight of active compound with the stated amounts of solvent and emulsifier and diluting the concentrate with water to the desired concentration. To test for protective activity, young wheat plants are sprayed with the preparation of active compound at the stated application rate. […] Subsequently the plants stand at 80% relative humidity and at a temperature of 20° C. After 7-9 days following inoculation, evaluation takes place.

Venturia inaequalis = assay: Venturia test (apple)/protective; format: in vivo; conditions: young apple plants, protective spray, 250 ppm, evaluation 10 days following inoculation
Description: Venturia Test (Apple)/Protective […] An appropriate preparation of active compound is produced by mixing 1 part by weight of active compound with the stated amounts of solvent and emulsifier and diluting the concentrate with water to the desired concentration. To test for protective activity, young plants are sprayed with the preparation of active compound at the stated application rate. […] Subsequently the plants are placed in a greenhouse at approximately 21° C. and approximately 90% humidity. After 10 days following inoculation, evaluation takes place.

Alternaria solani = assay: Alternaria test (tomato)/protective; format: in vivo; conditions: young tomato plants, protective spray, 1500 ppm, evaluation 7 days following inoculation
Text: Alternaria Test (Tomato)/Protective • Solvent: 49 parts by weight of N,N-dimethylformamide • Emulsifier: 1 part by weight of alkylaryl polyglycol ether An appropriate preparation of active compound is produced by mixing 1 part by weight of active compound with the stated amounts of solvent and emulsifier and diluting the concentrate with water to the desired concentration. To test for protective activity, young tomato plants are sprayed with the preparation of active compound at the stated application rate. […] Subsequently the plants stand at 96% relative humidity and a temperature of 20° C. After 7 days following inoculation, evaluation takes place.

Plasmopara viticola = assay: Plasmopara test (grapevine)/protective; format: in vivo; conditions: young grapevine plants, protective spray, 250 ppm, evaluation 6 days following inoculation
Phytophthora infestans = format: in vivo; conditions: young tomato plants, protective spray, 1500 ppm, evaluation 7 days following inoculation

Row | Compound | Log P [1] | Efficacy in % (Puccinia recondita) [%] | Efficacy in % (Venturia inaequalis) [%] | Efficacy in % (Alternaria solani) [%] | chromatographic logP ([1]; HPLC, C18, 43° C., acidic range pH 2.7 (0.1% aqueous formic acid/acetonitrile), read-out: Log P) | Efficacy in % (Plasmopara viticola) [%] | Efficacy in % (Phytophthora infestans) [%]
1 | Cn1c(=O)c2c(c(=O)n1C)SC(C#N)=C(C#N)S2 [Compound 1] | 1.39 | 90 |  |  |  |  | 
2 | N#CC1=C(C#N)Sc2c(c(=O)n3n(c2=O)CCCC3)S1 [Compound 2, 5,12-dioxo-5,7,8,9,10,12-hexahydro[1,4]dithiino[2,3-d]pyridazino[1,2-a]pyridazine-2,3-dicarbonitrile] |  | 95 | 89 | 93 | 1.74 | 100 | 88
3 | CCn1c(=O)c2c(c(=O)n1CC)SC(C#N)=C(C#N)S2 [Compound 3] | 2.05 | 95 |  | 86 |  |  | 75
4 | CCCn1c(=O)c2c(c(=O)n1CCC)SC(C#N)=C(C#N)S2 [Compound 4] | 2.80 | 95 |  | 93 |  |  | 94
5 | CCCn1c(=O)c2c(c(=O)n1CC)SC(C#N)=C(C#N)S2 [Compound 5] | 2.46 | 95 | 95 | 93 |  | 95 | 94
6 | N#CC1=C(C#N)Sc2c(c(=O)n3n(c2=O)CCOCC3)S1 [Compound 6] | 1.51 | 95 |  | 86 |  |  | 75
7 | CCCn1c(=O)c2c(c(=O)n1C)SC(C#N)=C(C#N)S2 [Compound 7] | 2.08 | 80 |  | 93 |  |  | 88
8 | N#CC1=C(C#N)Sc2c(c(=O)n3n(c2=O)CCC3)S1 [Compound 8] | 1.20 | 95 |  | 86 |  |  | 75
9 | CCn1c(=O)c2c(c(=O)n1C)SC(C#N)=C(C#N)S2 [Compound 9] | 1.72 | 95 | 86 | 86 |  | 93 | 94
10 | Cn1c(=O)c2c(c(=O)n1C)Sc1c(c(=O)n(C)n(C)c1=O)S2 [Compound 10] | 0.74 |  |  |  |  |  | 
